From ChEMBL document CHEMBL1201862, “PubChem BioAssay data set” (2004)
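All cell lines were grown in 96-well plates and treated with compound for 48 hours. GI50: concentration for 50% inhibition of growth.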 Activity calls are given as the source filed them. Rule as the data show it: active = GI50 up to about 1.1 µM and inactive = higher.

Experiments:
Assay in all cases: growth of human tumour cells (NCI), 48 h
UACC-257 = system: UACC-257
OVCAR-4 = system: OVCAR-4
NCI/ADR-RES = system: NCI/ADR-RES
HCT-116 = system: HCT-116
ACHN = system: ACHN
OVCAR-5 = system: OVCAR-5
OVCAR-3 = system: OVCAR-3
MCF7 = system: MCF7
SNB-19 = system: SNB-19
MDA-MB-435 = system: MDA-MB-435
NCI-H23 = system: NCI-H23
A498 = system: A498
PC-3 = system: PC-3
NCI-H522 = system: NCI-H522
Malme-3M = system: Malme-3M
CAKI-1 = system: CAKI-1
SK-MEL-2 = system: SK-MEL-2
RPMI-8226 = system: RPMI-8226
TK-10 = system: TK-10
MOLT-4 = system: MOLT-4

Measured: GI50

Cn1c(=O)c2nc(CSCc3ccccc3)[nH]c2n(C)c1=O
inactive: UACC-257 > 100 µM | OVCAR-4 > 100 µM | NCI/ADR-RES > 100 µM | HCT-116 > 100 µM | ACHN > 100 µM | OVCAR-5 > 100 µM | OVCAR-3 > 100 µM | MCF7 > 100 µM | SNB-19 > 100 µM | MDA-MB-435 > 100 µM | NCI-H23 > 100 µM | A498 > 100 µM | PC-3 > 100 µM | NCI-H522 35.6 µM | Malme-3M > 100 µM | CAKI-1 > 100 µM | SK-MEL-2 > 100 µM | RPMI-8226 67.6 µM | TK-10 > 100 µM | MOLT-4 > 100 µM

Sc1ccc2ccccc2c1CNCc1ccccc1
inactive: UACC-257 26.6 µM | OVCAR-4 10.9 µM | NCI/ADR-RES 25.4 µM | HCT-116 13.8 µM | ACHN 19 µM | OVCAR-5 13.1 µM | OVCAR-3 13.6 µM | MCF7 13.7 µM | SNB-19 24.3 µM | MDA-MB-435 12.3 µM | NCI-H23 14.5 µM | A498 16.3 µM | PC-3 18.8 µM | NCI-H522 4.93 µM | Malme-3M 21.8 µM | CAKI-1 15.7 µM | SK-MEL-2 19.7 µM | RPMI-8226 12.5 µM | TK-10 30.8 µM | MOLT-4 2.25 µM

C=CCC1(O)c2cccc(O)c2C(=O)c2c(O)cccc21
inactive: UACC-257 23 µM | OVCAR-4 28.4 µM | NCI/ADR-RES 18.9 µM | HCT-116 23.1 µM | ACHN 32.5 µM | OVCAR-5 35.2 µM | OVCAR-3 47.9 µM | MCF7 30.1 µM | MDA-MB-435 9.51 µM | NCI-H23 24.7 µM | A498 29 µM | PC-3 26 µM | NCI-H522 23.8 µM | CAKI-1 31.2 µM | SK-MEL-2 17.3 µM | RPMI-8226 31.7 µM | TK-10 32.7 µM | MOLT-4 29.3 µM

CC1=NN(c2cccc(Cl)c2)C2(SCC(=O)N2c2nc3ccccc3s2)/C1=C\c1ccc(Cl)cc1 (stereo not given)
inactive: UACC-257 21.6 µM | OVCAR-4 17.3 µM | NCI/ADR-RES 38.8 µM | HCT-116 16.3 µM | ACHN 19.2 µM | OVCAR-5 20.2 µM | OVCAR-3 16.8 µM | MCF7 22.2 µM | MDA-MB-435 19.9 µM | NCI-H23 18.4 µM | A498 17.3 µM | PC-3 15.7 µM | NCI-H522 20.3 µM | CAKI-1 18.3 µM | SK-MEL-2 16.7 µM | RPMI-8226 15.6 µM | TK-10 30.2 µM | MOLT-4 4.34 µM

CC(=O)N1N=C(c2ccc3ccccc3c2O)CC1c1ccc(N(C)C)cc1 (stereo not given)
inactive: UACC-257 > 100 µM | OVCAR-4 > 100 µM | NCI/ADR-RES > 100 µM | HCT-116 > 100 µM | ACHN > 100 µM | OVCAR-5 > 100 µM | OVCAR-3 > 100 µM | MCF7 > 100 µM | MDA-MB-435 > 100 µM | NCI-H23 > 100 µM | A498 > 100 µM | PC-3 > 100 µM | NCI-H522 > 100 µM | Malme-3M > 100 µM | CAKI-1 > 100 µM | SK-MEL-2 > 100 µM | RPMI-8226 > 100 µM | TK-10 > 100 µM | MOLT-4 > 100 µM

OC1CC2CCCN(CCc3c1[nH]c1ccccc31)C2 (stereo not given)
inactive: UACC-257 67.6 µM | OVCAR-4 > 100 µM | NCI/ADR-RES > 100 µM | HCT-116 > 100 µM | ACHN > 100 µM | MCF7 > 100 µM | SNB-19 > 100 µM | MDA-MB-435 > 100 µM | NCI-H23 > 100 µM | A498 > 100 µM | PC-3 > 100 µM | NCI-H522 > 100 µM | Malme-3M > 100 µM | CAKI-1 > 100 µM | SK-MEL-2 > 100 µM | RPMI-8226 > 100 µM | TK-10 > 100 µM

ON=C1CCCCC(=NO)CCCC1
inactive: UACC-257 > 100 µM | OVCAR-4 > 100 µM | NCI/ADR-RES > 100 µM | HCT-116 > 100 µM | ACHN > 100 µM | MCF7 > 100 µM | SNB-19 > 100 µM | MDA-MB-435 > 100 µM | NCI-H23 > 100 µM | A498 > 100 µM | PC-3 > 100 µM | NCI-H522 > 100 µM | Malme-3M > 100 µM | CAKI-1 > 100 µM | SK-MEL-2 > 100 µM | RPMI-8226 > 100 µM | TK-10 > 100 µM

CC1(C)OCC(C2OC(=O)C(OCc3ccccc3)=C2OCc2ccccc2)O1 (stereo not given)
inactive: UACC-257 29.9 µM | OVCAR-4 42.2 µM | NCI/ADR-RES 35.2 µM | HCT-116 31.3 µM | ACHN 31.5 µM | OVCAR-5 60.1 µM | OVCAR-3 49.2 µM | MCF7 50.5 µM | SNB-19 55.3 µM | MDA-MB-435 26.9 µM | NCI-H23 18.4 µM | A498 22.1 µM | PC-3 21 µM | NCI-H522 23.3 µM | Malme-3M 29.9 µM | CAKI-1 45.2 µM | SK-MEL-2 23.1 µM | RPMI-8226 24 µM | TK-10 44.3 µM | MOLT-4 23 µM

C=CC[C@H](C)CCC(=O)N1[C@H]2CC3CC[C@@]2(CS1(=O)=O)C3(C)C
inactive: UACC-257 66.1 µM | OVCAR-4 39.5 µM | NCI/ADR-RES 44.2 µM | HCT-116 48 µM | ACHN 40.7 µM | OVCAR-5 > 100 µM | MCF7 33.9 µM | SNB-19 87.9 µM | MDA-MB-435 47.2 µM | NCI-H23 22.7 µM | A498 > 100 µM | PC-3 40.3 µM | NCI-H522 30.3 µM | Malme-3M 46.8 µM | CAKI-1 80.4 µM | SK-MEL-2 50.2 µM | RPMI-8226 39.9 µM | TK-10 > 100 µM | MOLT-4 17.3 µM

C[C@]12CCC(=O)C=C1CC[C@@H]1[C@@H]2CC[C@]2(C)C(=O)[C@H](n3ccnc3)C[C@@H]12
inactive: UACC-257 > 100 µM | OVCAR-4 > 100 µM | NCI/ADR-RES > 100 µM | HCT-116 > 100 µM | ACHN > 100 µM | OVCAR-5 > 100 µM | MCF7 > 100 µM | SNB-19 > 100 µM | MDA-MB-435 > 100 µM | NCI-H23 > 100 µM | A498 > 100 µM | PC-3 > 100 µM | NCI-H522 > 100 µM | Malme-3M > 100 µM | CAKI-1 > 100 µM | SK-MEL-2 > 100 µM | RPMI-8226 > 100 µM | TK-10 > 100 µM | MOLT-4 35.2 µM

Nc1cc(F)ccc1CC(=O)O
inactive: UACC-257 > 100 µM | NCI/ADR-RES > 100 µM | HCT-116 > 100 µM | ACHN > 100 µM | OVCAR-5 > 100 µM | MCF7 > 100 µM | SNB-19 > 100 µM | MDA-MB-435 > 100 µM | NCI-H23 > 100 µM | A498 > 100 µM | PC-3 > 100 µM | NCI-H522 > 100 µM | Malme-3M > 100 µM | CAKI-1 > 100 µM | SK-MEL-2 > 100 µM | RPMI-8226 > 100 µM | TK-10 > 100 µM | MOLT-4 > 100 µM
